Assay results published in US6048892A, “Ester compound pesticide containing thereof” (Sumitomo Chemical Company, Limited, priority 1999, dated 2000).

What was measured:
[1] = test system: webbing clothes moth (Tineola bisselliella); experiment: Biological Test 14: treated filter paper in cardboard box, percent moribund, fabric damage and persistence; type: in vivo; conditions: 36 mg on filter paper
Description: A filter paper (3.2 cm×3.2 cm in size) treated with 36 mg of each of the present compounds and two wool muslin fabrics (25 cm×25 cm in size) were hung down at the upper part of a corrugated cardboard box (29 cm×29 cm×29 cm in size). After standing at 25° C. and a humidity of 60% for 1 week, two tea-strainer balls holding 7 to 10 middle instar larvae of webbing clothes moth (Tineola bisselliella) and one piece of wool muslin cloth (2 cm×2 cm in size) were hung down at the upper part of the box. The box was closed with a lid. After one week, the box was opened, and the percent moribund and the degree of damage of the wool muslin cloth by the moths were examined. The same tests was repeated 2 weeks, 3 weeks and 5 weeks after the treatment to examine the persistance of the present compound. The degree of damage was represented by "-" in no damage, "+" in slight damage, "++" in heavy damage and "+++" in severe damage.

[2] = Toxicity Test: acute oral LD50; conditions: rat, in vivo, corn oil, fasted male 7-week old rats, after 7 days
Description: After subjecting the rats to a twenty-hour fasting, 0.1 ml of the diluted solution per 10 g weight was forcibly applied into the stomach of four male 7-week old rats. The rats were given food and water four hours after the application and thereafter regularly fed and watered, and kept in a cage. After 7 days, the mortality was examined for the rats and LD50 was calculated.

[3] = test system: tobacco cutworm (Spodoptera litura); experiment: Biological Test 1: mortality of larvae on impregnated artificial bait; type: in vivo; conditions: 144 h, read-out: mortality of the larvae
Description: Emulsifiable concentrates were prepared for each of the present compounds according to the formulation example 1. Thirteen grams of artificial bait for tobacco cutworm (Spodoptera litura) were placed in a polyethylene cup (diameter: 11 cm) and impregnated with 2 ml of the 500 ppm emulsion prepared by diluting the emulsifiable concentrates with water. Ten 4-instar larvae of Spodoptera litura were put in the polyethylene cup. After 6 days, the mortality of the larvae was examined.

[4] = test system: brown planthopper (Nilaparvata lugens); experiment: Biological Test 2: mortality of larvae on dipped rice plant stalk; type: in vivo; conditions: 144 h, read-out: mortality of the larvae
Description: A stalk of a rice plant was dipped for one minute in a 500 ppm aqueous emulsion obtained by diluting each emulsifiable concentrate of the present compounds prepared according to the formulation example 1. The rice plant stalk was air-dried and placed in a polyethylene cup (diameter: 5.5 cm) where filter paper (diameter: 5.5 cm) impregnated with 1 ml of water was put. Approximately 30 larvae of brown planthopper (Nilaparvata lugens) were put in the polyethylene cup. After 6 days, the mortality of the larvae was examined.

[5] = test system: southern corn rootworm (Diabrotica undecimpunctata howardi); experiment: Biological Test 3: mortality of hatched larvae and eggs; type: in vivo; conditions: 192 h, read-out: mortality of the hatched larvae and eggs
Description: Filter paper of 5.5 cm in diameter was laid in the bottom of a polyethylene cup (diameter: 5.5 cm). […] After 8 days, the mortality of the hatched larvae and eggs was examined.

[6] = test system: houseflies (Musca domestica); experiment: Biological Test 4: mortality of female houseflies low sensitive to pyrethroids, treated filter paper; type: in vivo; conditions: 24 h
Description: (§1) Filter paper of 5.5 cm in diameter was laid in the bottom of a polyethylene cup (diameter: 5.5 cm). After 0.7 ml of a 500 ppm aqueous emulsion obtained by diluting each emulsifiable concentrate prepared according to the formulation example 1 was dropped on the filter paper and approximately 30 mg of sucrose as bait was uniformly scattered. Ten female houseflies (Musca domestica), which were low sensitive to pyrethroids, were left in the cup with a cover. After one day, the mortality was examined.

[7] = test system: German cockroaches (Blattella germanica); experiment: Biological Test 5: mortality of male German cockroaches low sensitive to pyrethroids, treated filter paper; type: in vivo; conditions: 144 h
Description: as §1, with “Two male German cockroaches (Blattella germanica),” for “Ten female houseflies (Musca domestica),”, “six days,” for “one day,”

[8] = test system: common mosquitoes (Culex pipiens pallens); experiment: Biological Test 6: mortality of last-instar mosquito larvae in water; type: in vivo; conditions: 24 h, read-out: mortality of the common mosquitoes
Description: 0.7 ml of aqueous emulsion, obtained by diluting emulsifiable concentrate prepared for each of the present compounds according to the formulation example 1, was added to 100 ml of ion-exchanged water (concentration of active ingredient: 3.5 ppm). Twenty last-instar larvae of common mosquitoes (Culex pipiens pallens) were left in the water. After one day, the mortality of the common mosquitoes was examined.

[9] = test system: common mosquitoes (Culex pipiens pallens); experiment: Biological Test 7: knock-down of mosquitoes by sprayed oil solution; type: in vivo; conditions: 0.7 ml of 0.1% oil solution sprayed in 0.34 m^3 chamber; after 15 minutes
Description: Ten female common mosquitoes (Culex pipiens pallens) were left in a glass chamber (70 cm×70 cm×70 cm: 0.34 m^3). 0.7 ml of 0.1% oil solution prepared for each of the present compounds according to the formulation example 7 was sprayed with a spray gun at 0.8 atmospheric pressure. After 15 minutes, the rate of knocked-down mosquitoes was examined.

[10] = test system: common mosquitoes (Culex pipiens pallens); experiment: Biological Test 8: knock-down of mosquitoes by mosquito-coil; type: in vivo; conditions: 1.0 g of 0.3% mosquito-coil in 0.34 m^3 chamber; after 15 minutes
Description: Mosquito-coil containing the present compound in an amount of 0.3% was prepared according to the formulation example 10 for the present compounds. Ten female common mosquitoes (Culex pipiens pallens) were left in a glass chamber (70 cm×70 cm×70 cm: 0.34 m^3) and 1.0 g of 0.3% mosquito-coil having both ends lit was placed in the glass chamber. After 15 minutes, the rate of knocked-down mosquitoes was examined.

[11] = test system: common mosquitoes (Culex pipiens pallens); experiment: Biological Test 11: mosquitoes in cup over treated aluminum plate without direct contact, mortality; type: in vivo; conditions: 24 h
Description: After 0.64 ml of a 0.05 (w/v) % acetone solution of the present compounds was dropped into an aluminum plate (bottom diameter: 7 cm), acetone was air-dried. Ten female common mosquitoes (Culex pipiens pallens) were left in a polyethylene cup (diameter: 9 cm; depth: 4.5 cm) and the cup was sealed with a 16-mesh nylon net to prevent direct contact of the mosquitoes with the compound. The cup was placed upside down on the aluminum plate at 25° C. for 120 minutes. The cup was then removed from the aluminum plate, and water and feed were given to the mosquitoes. After 24 hours, the mortality was examined (two replicate).

[12] = test system: webbing clothes moth (Tineola bisselliella); experiment: Biological Test 12: topical application to larvae of webbing clothes moth, mortality and fabric damage; type: in vivo; conditions: for degree of damage of the wool muslin fabric: 3 μg/insect, after 7 days; for mortality at 0.003 mg: Tineola bisselliella, 168 h
Description: Each of the present compounds diluted with acetone to a predetermined concentration was applied to ten middle instar larvae of webbing clothes moth (Tineola bisselliella) at the central part of the back so as to give the active ingredient in a dose of 3 μg/insect. A wool muslin fabric (2 cm×2 cm in size) was given to the webbing clothes moths as the food. After 7 days, the mortality and the degree of damage of the wool muslin fabric by the moths were examined (two replicate).

[13] = test system: webbing clothes moth (Tineola bisselliella); experiment: Biological Test 13: volatile agent in cup, mortality and fabric damage; type: in vivo; conditions: volatile agent (100 μg on filter paper), 950 cm^3 cup, 25° C., 1 week; for mortality: 10080 min
Description: A wool muslin fabric (2 cm×2 cm in size) was placed on the bottom of a polyethylene cup (bottom diameter: 10 cm, opening part diameter: 12.5 cm, height: 9.5 cm, volume: 950 cm^3). Ten middle instar larvae of webbing clothes moth (Tineola bisselliella) were put in the cup and each of the volatile agents prepared according to the formulation example 14 was hung from the cap in the interior of the cup. After standing at 25° C. for 1 week, the cup was opened, and the mortality and the degree of damage of the wool muslin fabric by the moths were examined (two replicate).

[14] = test system: houseflies (Musca domestica); experiment: Biological Test 17: topical application of compound (2) with piperonyl butoxide, mortality; type: in vivo; conditions: after 24 hours
Description: The combination rate of piperonyl butoxide to the present compound was 0, 2, 4, 8 and 16 times. The mixture was dissolved in acetone. The acetone solution (0.5 μL) was applied to 10 female houseflies (Musca domestica) at the back thoracic region. After 24 hours, the number of dead insects was observed (2 repetition) and mortality was calculated.

Row | Structure (SMILES) | degree of damage ([1]; After 1 week) | degree of damage ([1]; After 2 weeks) | degree of damage ([1]; After 3 weeks) | degree of damage ([1]; After 5 weeks) | LD50 at 168 h [2] [mg/kg] | mortality at 500 µg/mL [3] [%] | mortality at 500 ppm [4] [%] | mortality at 50 ppm [5] [%] | mortality at 500 ppm [6] [%] | mortality at 500 ppm [7] [%] | mortality at 3.5 ppm [8] [%] | rate of knocked-down mosquitoes [9] [%] | rate of knocked-down mosquitoes [10] [%] | mortality at 500 µg/mL [11] [%] | degree of damage of the wool muslin fabric [12] | mortality at 0.003 mg [12] [%] | degree of damage of the wool muslin fabric [13] | mortality [13] [%] | further results
1 | C#CCc1ccc(COC(=O)C2C(/C=C(\Cl)C(F)(F)F)C2(C)C)o1 (stereo not shown) [C, reference compound] | +++ | +++ | +++ | +++ | < 100 |  |  |  |  |  |  |  |  |  |  |  |  |  | 
2 | CCc1ccc(COC(=O)[C@@H]2[C@H](/C=C(\Cl)C(F)(F)F)C2(C)C)o1 (relative stereo) [(2), 5-ethyl-2-furfuryl (1RS,cis)-3-(Z-2-chloro-3,3,3-trifluoroprop-1-enyl)-2,2-dimethyl-cyclopropanecarboxylate] | - | - | - | - |  | 100 | ≥ 90 | 100 | 100 | 100 | ≥ 90 | ≥ 90 | 100 | 100 | no damage | 100 | no damage | 100 | Mortality (%) ([14]; compound (2) 0.2 μg/female, piperonyl butoxide 0): 30%; Mortality (%) ([14]; compound (2) 0.2 + piperonyl butoxide 0.4 μg/female): 85%; Mortality (%) ([14]; compound (2) 0.2 + piperonyl butoxide 0.8 μg/female): 100%; Mortality (%) ([14]; compound (2) 0.2 + piperonyl butoxide 1.6 μg/female): 100%; Mortality (%) ([14]; compound (2) 0.2 + piperonyl butoxide 3.2 μg/female): 100%
3 | C=CCc1ccc(COC(=O)[C@@H]2[C@H](/C=C(\Cl)C(F)(F)F)C2(C)C)o1 (relative stereo) [(4), 5-allyl-2-furfuryl (1RS,cis)-3-(Z-2-chloro-3,3,3-trifluoroprop-1-enyl)-2,2-dimethylcyclopropanecarboxylate] | - | - | - | - |  | 100 | ≥ 90 | 100 | 100 | 100 | ≥ 90 | ≥ 90 | 100 | 100 | no damage | 100 | no damage | 100 | 
4 | CCCc1ccc(COC(=O)[C@@H]2[C@H](/C=C(\Cl)C(F)(F)F)C2(C)C)o1 (relative stereo) [(3), 5-propyl-2-furfuryl (1RS,cis)-3-(Z-2-chloro-3,3,3-trifluoroprop-1-enyl)-2,2-dimethylcyclopropanecarboxylate] | - | - | - | - |  | 100 | ≥ 90 | 100 | 100 | 100 | ≥ 90 | ≥ 90 | 100 | 100 | no damage | 100 | no damage | 100 | 
5 | CC1(C)C(/C=C(\Cl)C(F)(F)F)C1C(=O)OCc1coc(Cc2ccccc2)c1 (stereo not shown) [A, reference compound] | +++ | +++ | +++ | +++ | < 50 |  |  |  |  |  |  |  |  |  |  |  |  |  | 
6 | CC1(C)C(/C=C(\Cl)C(F)(F)F)C1C(=O)OCc1ccc(C(F)F)o1 (stereo not shown) [B, reference compound] | +++ | +++ | +++ | +++ |  |  |  |  |  |  |  |  |  |  |  |  |  |  | 
